Data set [1] can be described thus: Comparative test of solubility of the solid dispersions in polymer. The class given is physicochemical. The following applies: simulated gastric fluid, thermodynamic from solid, simulated gastric juice (pH 1.2), 25° C., itraconazole:hydrophilic polymer=1:1.5 (w/w), n=3, Average ± Standard deviation.
For data set [2] the following is noted: pH 8.1 aqueous buffer/n-octanol system; cited from earlier work.
For data set [3] the following is noted: cited from earlier work.

Molecules are shown by their SMILES.

Broadly, the solubility is the dissolved amount per volume that the medium holds. The low end stands for little dissolved substance, the high end for much dissolved substance.

For `CCC(C)n1ncn(-c2ccc(N3CCN(c4ccc(OCC5COC(Cn6cncn6)(c6ccc(Cl)cc6Cl)O5)cc4)CC3)cc2)c1=O` (mixture of isomers) [itraconazole, (±)-cis-4-[4-[4-[4-[[2-(2,4-dichlorophenyl)-2-(1H-1,2,4-triazol-1-ylmethyl)-1,3-dioxolan-4-yll]methoxy]phenyl]-1-piperazinyl]phenyl]-2,4-dihydro-2-(1-methylpropyl)-3H-1,2,4-triazol-3-one], the solubility at 24 h in data set [1] is 1.38 ± 0.11 µg/mL. Besides, the oil/water partition coefficient in data set [2] is listed as 5.66. Besides, the “solubility in diluted acidic solution” value in data set [3] (diluted acidic solution) is on record as “less than 5 μg/ml”. In addition, the solubility in water entry in data set [3] (water) is on record as “less than 1 μg/ml”.

The record behind these values is patent US6485743B1, “Method and composition of an oral preparation of itraconazole” (Choongwae Pharma Corporation, priority 1997, dated 2002).
